Laboratory results taken from patent US9707200B2, “Metabolism-improving agent comprising rare fatty acid” (KYOTO UNIVERSITY, priority 2012, dated 2017).

Assays:
[1] = molecular target: T1, LXR (Homo sapiens, UniProt Q13133); assay: Antagonizing action on LXR by luciferase assay; type: cell-based; conditions: overall finding from SREBP-1c, SREBP-1, SCD-1, FAS, ACC1, 2, triacylglycerol and LXR luciferase measurements in HepG2 cells
T1 construct: expressed in transfected cells; host or cells: HepG2 (human liver cancer-derived)
T1 sequence (Q13133 1-447): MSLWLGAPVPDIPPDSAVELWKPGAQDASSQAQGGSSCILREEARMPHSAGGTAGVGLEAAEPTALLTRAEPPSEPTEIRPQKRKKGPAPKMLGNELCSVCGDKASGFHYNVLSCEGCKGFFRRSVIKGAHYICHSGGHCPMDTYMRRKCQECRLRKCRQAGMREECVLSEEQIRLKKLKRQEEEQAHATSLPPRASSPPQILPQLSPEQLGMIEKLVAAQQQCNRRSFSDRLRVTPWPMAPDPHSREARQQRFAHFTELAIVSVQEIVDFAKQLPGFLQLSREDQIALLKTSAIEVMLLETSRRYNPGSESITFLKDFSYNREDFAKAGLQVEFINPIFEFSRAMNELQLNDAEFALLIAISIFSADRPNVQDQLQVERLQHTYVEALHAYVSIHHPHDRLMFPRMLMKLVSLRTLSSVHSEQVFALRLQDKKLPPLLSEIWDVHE
Procedure: In addition, the protein expression level of immature and mature SREBP-1c was measured. Cells treated as mentioned above were dispersed in buffer A (250 mM sucrose, 10 mM HEPES-KOH, 10 mM KCl, 1.5 mM MgCl2, 1 mM EDTA-Na, 1 mM EGTA-Na, pH 7.6) containing a protease inhibitor, passed 20 times through a 23 gauge injection needle, and centrifuged (1,000×g, 4° C., 5 min) to separate into supernatant 1 and precipitate 1. The precipitate 1 was re-dissolved in buffer B (20 mM HEPES-KOH, 0.42 M NaCl, 2.5% glycerol, 1.5 mM MgCl2, 1 mM EDTA-Na, 1 mM EGTA-Na, pH 7.6), and centrifuged (10^5×g, 4° C., 15 min). The obtained supernatant 2 was used as a nuclear fraction (including mature form). The supernatant 1 was further centrifuged (10^5×g, 4° C., 15 min), and the obtained precipitate 2 was dissolved in cell lysate (10 mM Tris-HCl, 100 mM NaCl, 1% SDS, 1 mM EDTA-Na, 1 mM EGTA-Na) and used as a membrane fraction (including immature form). Using these as samples, measurement was performed by Western blot method using anti-SREBP-1 polyclonal antibody (Santa Cruz). Using Dual luciferase system (Promega), antagonizing action on LXR was evaluated by luciferase assay. p3xIR1-tk-Luc, pCMX-hLXRa, pRL-CMX were introduced into HepG2 cell. After culture in a 0.1% BSA-containing serum-free medium containing various fatty acids and T0901317 for 24 hr, the luciferase activity was measured.

[2] = molecular target: T2, PPARγ (Homo sapiens, UniProt P37231); assay: PPARγ ligand activity, GAL4-PPARγ reporter luciferase assay in CV-1 cells; type: cell-based; conditions: 24 hr incubation, KetoA and HYA each at 30 μM, other fatty acids by a similar method
T2 construct: expressed in transfected cells; host or cells: CV-1 (African green monkey kidney)
T2 sequence (P37231 238-503 limits assumed): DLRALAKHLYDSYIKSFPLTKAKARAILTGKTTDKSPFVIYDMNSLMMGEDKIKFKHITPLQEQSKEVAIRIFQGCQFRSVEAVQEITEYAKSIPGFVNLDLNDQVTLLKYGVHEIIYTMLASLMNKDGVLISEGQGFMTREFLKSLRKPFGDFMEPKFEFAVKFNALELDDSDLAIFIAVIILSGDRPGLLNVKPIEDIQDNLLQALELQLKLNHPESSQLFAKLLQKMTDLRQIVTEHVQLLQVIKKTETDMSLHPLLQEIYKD
Procedure: (§1) To evaluate the function of oxo fatty acid and the like, PPARα, γ-activating action was measured first. The measurement was performed in reference to Nobuyuki Takahashi et al., FEES Letters 514 (2002) p. 315-322, “Dual action of isoprenols from herbal medicines on both PPARgamma and PPARalpha in 3T3-L1 adipocytes and HepG2 hepatocytes.”, the section of Materials and Methods “Reporter plasmids and luciferase assays”. To be specific, a plasmid containing DNA encoding a fused protein of PPARα, γ ligand binding region and GAL4 DNA binding region (pM-hPPARα or pM-hPPARγ), a reporter plasmid containing GAL4 binding DNA sequence linked to luciferase (p4xUASg-tk-luc), and internal control (pRL-CMV) to standardize transfection efficiency were introduced into CV-1 cell derived from the kidney of African green monkey. The ligand described below was added to the cells and, after incubation for 24 hr, luciferase activity was measured. As a ligand, KetoA and HYA were each added at 30 μM.
(§2) The concentration of the sample was adjusted with ethanol. Ethanol was used as a negative control, […], and GW7647 (10 nM) and Troglitazone (5 μM) were used as […].

[3] = molecular target: T3, PPARα (Homo sapiens, UniProt Q07869); assay: PPARα ligand activity, GAL4-PPARα reporter luciferase assay in CV-1 cells; type: cell-based; conditions: 24 hr incubation, KetoA and HYA each at 30 μM, other fatty acids by a similar method
T3 construct: expressed in transfected cells; host or cells: CV-1 (African green monkey kidney)
T3 sequence (Q07869 239-466 limits assumed): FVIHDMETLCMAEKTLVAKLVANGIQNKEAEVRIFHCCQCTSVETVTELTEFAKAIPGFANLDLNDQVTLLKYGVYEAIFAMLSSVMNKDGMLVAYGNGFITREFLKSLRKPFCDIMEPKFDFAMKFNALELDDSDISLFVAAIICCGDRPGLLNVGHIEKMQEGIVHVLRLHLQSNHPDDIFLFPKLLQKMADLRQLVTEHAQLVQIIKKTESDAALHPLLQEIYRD
Procedure: as §1, §2

[4] = test system: HepG2 cells; assay: Effect on LXR agonist-induced expression of fatty acid synthesis genes, real-time PCR; type: cell-based, human; conditions: 10 nM T0901317 alone, 24 hr
[5] = test system: HepG2 cells; assay: Intracellular triacylglycerol accumulation by LXR agonist; type: cell-based, human; conditions: 10 nM T0901317 alone, 24 hr
Procedure: HepG2 cells (2.0×10^5 cells/mL) were cultured in DMEM medium containing 10% FES for 24 hr, and the medium was exchanged with 0.1% BSA-containing DMEM medium containing 10 nM LXR agonist T0901317 (Cayman Chemicals) and 60 μM various fatty acid. After culture for 24 hr, the cells were recovered, and total RNA was extracted using Sepasol reagent (Nacalai Tesque). After DNase treatment, reverse transcription was performed using SuperScriptII (Invitrogen) to give a cDNA solution. Using SYBR Green Mix (Bio-Rad, Richmond, Calif.) and gene-specific primer (Table 1), real-time PCR was performed as follows.
1. Reaction at 96° C., 15 min, 2. reaction at 96° C., 15 sec, 3. reaction at 60° C. for 30 sec, 4. measurement of fluorescence, 5. 2-4 were repeated 40 times, 6. the melting curve was measured from 65° C. to 95° C. at 0.4° C. intervals. As the internal standard, 18S rRNA was used. The genes involved in the fatty acid synthesis as measured were Sterol regulatory element binding protein-1c (SREBP-1c), Stearoyl coenzyme A desaturase-1 (SCD-1), Fatty acid synthase (FAS), and Acetyl CoA carboxylase-1 and -2 (ACC-1, 2). As for the amount of accumulated intracellular TG, the lipid was extracted with chloroform-methanol, and quantified by triglyceride-′E Test Wako (Wako Pure Chemical Industries, Ltd.).

Row | lipid synthesis suppressive action by the antagonizing action on LXR [1] | PPARγ agonist activity (relative luciferase activity) [2] | PPARα agonist activity (relative luciferase activity) [3] | SMILES | expression of SREBP-1c mRNA [4] | intracellular triacylglycerol level [5]
1 | lipid synthesis suppressive action | PPARγ agonist activity | – | CCCCC/C=C\CC(=O)CC/C=C\CCCCC(=O)O [γKetoA, 10-oxo-cis-6,cis-12-octadecadienoic acid] | – | –
2 | lipid synthesis suppressive action | – | PPARα agonist activity | CCCCC/C=C\CC(O)CC/C=C\CCCCC(=O)O (stereo not drawn) [γHYA, 10-hydroxy-cis-6,cis-12-octadecadienoic acid] | – | –
3 | lipid synthesis suppressive action | – | PPARα agonist activity | CCCCCCCCC(O)CCCCCCCCC(=O)O (stereo not shown) [HYB, 10-hydroxyoctadecanoic acid] | – | –
4 | – | PPARα and γ agonist activity | PPARα and γ agonist activity | CCCCCC/C=C/C(=O)CCCCCCCCC(=O)O [KetoC, 10-oxo-trans-11-octadecenoic acid] | – | –
5 | – | – | PPARα agonist activity | CCCCCCCCC(=O)CCCCCCCCC(=O)O [KetoB, 10-oxooctadecanoic acid] | – | –
6 | – | – | PPARα agonist activity | CCCCCCC(O)CC(O)CCCCCCCCC(=O)O (stereo not shown) [rHYA, 10,12-dihydroxyoctadecanoic acid] | – | –
7 | – | – | PPARα agonist activity | CC/C=C\C/C=C\CC(O)CCCCCCCCC(=O)O (stereo not drawn) [αHYA, 10-hydroxy-cis-12,cis-15-octadecadienoic acid] | – | –
8 | lipid synthesis suppressive action | – | PPARα agonist activity | CCCCCCC(=O)CCCCCCCCCCC(=O)O [rKetoB, 12-oxooctadecanoic acid] | – | –
9 | – | PPARα and γ agonist activity | PPARα and γ agonist activity | CCCCCC/C=C/C(=O)CC/C=C\CCCCC(=O)O [γKetoC, 10-oxo-cis-6,trans-11-octadecadienoic acid] | – | –
10 | lipid synthesis suppressive action | PPARγ agonist activity | – | CC/C=C\C/C=C\CC(=O)CCCCCCCCC(=O)O [αKetoA, 10-oxo-cis-12,cis-15-octadecadienoic acid] | – | –
11 | lipid synthesis suppressive action | – | PPARα agonist activity | CCCCCC[C@@H](O)C/C=C\CCCCCCCC(=O)O [RA, ricinoleic acid] | – | –
12 | – | – | – | O=S(=O)(c1ccccc1)N(CC(F)(F)F)c1ccc(C(O)(C(F)(F)F)C(F)(F)F)cc1 [T0901317, reference compound] | about 7 fold | increased
13 | – | PPARα and γ agonist activity | PPARα and γ agonist activity | CC/C=C\CC/C=C/C(=O)CCCCCCCCC(=O)O [αKetoC, 10-oxo-trans-11,cis-15-octadecadienoic acid] | – | –

Row | SMILES | lipid synthesis suppressive action by the antagonizing action on LXR [1] | PPARγ agonist activity (relative luciferase activity) [2] | PPARα agonist activity (relative luciferase activity) [3] | expression of SREBP-1c mRNA [4] | intracellular triacylglycerol level [5]
14 | CCCCCCC(O)CCCCCCCCCCC(=O)O (stereo not shown) [rHYB, 12-hydroxyoctadecanoic acid] | lipid synthesis suppressive action | – | PPARα agonist activity | – | –
